Structures can show the parent of a compound that is named as a salt. Where two headings read alike, the source gives them in different places. Blank lines part the entries; values can stand above or below the compound they belong to.
Tests used:
[1] = Pharmacokinetics and oral bioavailability in the mouse; assay type: in vivo; details: for F on AUC: 10 mg/kg, ratio of oral to IV dose-normalized AUC; for clearance / Vd / AUC / Cmax / half-life: male, Balb Nu/Nu, plasma, mean value; for clearance / Vd: 10 mg/kg intravenous bolus; for clearance: read-out: Cl (IV bolus); for Vd: read-out: Vdss (IV bolus); for AUC / Cmax / half-life: 10 mg/kg oral; for half-life: read-out: T½ (oral) (converted)
[2] = tested on: hydrogen peroxide induced PAR formation in HeLa cells; test: PAR assay: inhibition of hydrogen peroxide induced PAR formation in HeLa cells; details: Homo sapiens, read-out: PAR assay (IC50 μM)
[3] = molecular target: PARP-1 (Homo sapiens (Human), UniProt P09874); test: Fluorescence polarization displacement assay with probe of formula (IP), PARP-1; assay type: binding; details: for DC50: probe P1
Chain of PARP-1 (P09874 whole entry): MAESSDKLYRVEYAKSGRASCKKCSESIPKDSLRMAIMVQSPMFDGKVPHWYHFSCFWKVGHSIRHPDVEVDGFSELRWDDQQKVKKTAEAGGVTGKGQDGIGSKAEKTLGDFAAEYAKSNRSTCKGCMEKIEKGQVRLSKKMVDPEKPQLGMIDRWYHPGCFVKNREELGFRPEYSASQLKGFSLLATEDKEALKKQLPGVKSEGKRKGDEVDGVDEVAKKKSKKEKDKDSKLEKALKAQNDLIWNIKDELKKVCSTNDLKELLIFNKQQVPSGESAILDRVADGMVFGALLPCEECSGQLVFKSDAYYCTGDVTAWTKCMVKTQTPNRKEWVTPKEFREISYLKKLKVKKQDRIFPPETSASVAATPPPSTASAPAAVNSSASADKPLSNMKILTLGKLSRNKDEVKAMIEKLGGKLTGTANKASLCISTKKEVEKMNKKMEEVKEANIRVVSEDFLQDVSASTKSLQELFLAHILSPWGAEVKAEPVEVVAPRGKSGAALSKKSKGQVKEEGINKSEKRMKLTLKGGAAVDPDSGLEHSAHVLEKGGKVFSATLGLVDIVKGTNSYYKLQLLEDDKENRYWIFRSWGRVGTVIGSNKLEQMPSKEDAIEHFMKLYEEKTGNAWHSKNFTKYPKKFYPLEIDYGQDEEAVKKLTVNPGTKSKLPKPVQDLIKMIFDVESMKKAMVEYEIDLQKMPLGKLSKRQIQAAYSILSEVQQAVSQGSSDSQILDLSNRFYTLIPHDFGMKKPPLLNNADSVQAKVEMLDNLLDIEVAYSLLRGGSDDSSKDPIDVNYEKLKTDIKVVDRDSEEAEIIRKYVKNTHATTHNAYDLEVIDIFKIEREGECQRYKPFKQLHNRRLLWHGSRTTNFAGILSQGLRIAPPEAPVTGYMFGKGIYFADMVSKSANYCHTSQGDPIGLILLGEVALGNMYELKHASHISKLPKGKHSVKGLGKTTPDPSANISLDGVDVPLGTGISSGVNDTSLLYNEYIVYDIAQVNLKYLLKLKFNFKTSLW
Protocol: (§1) Affinity evaluation of the tested compounds and their selectivity with respect to the different PARP isoforms of interest was assessed in a displacement assay.
(§2) b) comparing the polarization signal generated in the absence of the test compound with the one generated in the presence of different concentrations of the test compound, and
(§3) c) evaluating the ability of the test compound to displace the compound of formula (IP) as defined above indicated from a decreased fluorescence polarization level.
(§4) The 5H-phenanthridin-6-one-derived probe (IP) was selected for its capability of binding to the PARP proteins, both encompassing full-length native proteins and fragments thereof.
(§5) The polarization signal can be measured, e.g., by a plate reader such as the Saphire2 (Tecan). Data analysis was performed, e.g., by using the Dynafit software. Displacement data were also fitted, e.g., by using Excel spreadsheet (Microsoft Inc. Seattle, USA) to a four parameter logistic model (4PL), or Hill-Slope model. The assay was used to test compounds of the present invention. The displacement ability of the test compounds of formula (I) is in correlation with the compounds affinity for the NAD pocket of the enzyme.

[4] = molecular target: PARP-2 (Homo sapiens (Human), UniProt Q9UGN5); test: Fluorescence polarization displacement assay with probe of formula (IP), PARP-2; assay type: binding; details: probe P1
Chain of PARP-2 (Q9UGN5 whole entry): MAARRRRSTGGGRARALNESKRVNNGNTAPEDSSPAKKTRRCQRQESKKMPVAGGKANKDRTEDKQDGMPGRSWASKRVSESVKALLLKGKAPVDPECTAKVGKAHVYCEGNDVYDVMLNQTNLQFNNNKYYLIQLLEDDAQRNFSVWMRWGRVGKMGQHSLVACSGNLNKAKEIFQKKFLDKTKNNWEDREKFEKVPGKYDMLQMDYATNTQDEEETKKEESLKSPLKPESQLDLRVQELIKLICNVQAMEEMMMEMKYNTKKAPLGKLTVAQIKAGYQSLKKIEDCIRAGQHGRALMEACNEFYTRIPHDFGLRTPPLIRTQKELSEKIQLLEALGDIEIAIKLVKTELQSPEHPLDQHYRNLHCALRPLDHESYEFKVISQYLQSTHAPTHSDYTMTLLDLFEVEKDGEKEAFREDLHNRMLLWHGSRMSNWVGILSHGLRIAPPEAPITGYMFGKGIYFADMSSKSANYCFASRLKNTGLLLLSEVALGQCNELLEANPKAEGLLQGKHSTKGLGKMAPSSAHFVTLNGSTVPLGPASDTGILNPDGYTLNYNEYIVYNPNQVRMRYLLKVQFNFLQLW
Protocol: as §1, §2, §3, §4, §5

[5] = molecular target: PARP-3 (Homo sapiens (Human), UniProt Q9Y6F1); test: Fluorescence polarization displacement assay with probe of formula (IP), PARP-3; assay type: binding
Chain of PARP-3 (Q9Y6F1 whole entry): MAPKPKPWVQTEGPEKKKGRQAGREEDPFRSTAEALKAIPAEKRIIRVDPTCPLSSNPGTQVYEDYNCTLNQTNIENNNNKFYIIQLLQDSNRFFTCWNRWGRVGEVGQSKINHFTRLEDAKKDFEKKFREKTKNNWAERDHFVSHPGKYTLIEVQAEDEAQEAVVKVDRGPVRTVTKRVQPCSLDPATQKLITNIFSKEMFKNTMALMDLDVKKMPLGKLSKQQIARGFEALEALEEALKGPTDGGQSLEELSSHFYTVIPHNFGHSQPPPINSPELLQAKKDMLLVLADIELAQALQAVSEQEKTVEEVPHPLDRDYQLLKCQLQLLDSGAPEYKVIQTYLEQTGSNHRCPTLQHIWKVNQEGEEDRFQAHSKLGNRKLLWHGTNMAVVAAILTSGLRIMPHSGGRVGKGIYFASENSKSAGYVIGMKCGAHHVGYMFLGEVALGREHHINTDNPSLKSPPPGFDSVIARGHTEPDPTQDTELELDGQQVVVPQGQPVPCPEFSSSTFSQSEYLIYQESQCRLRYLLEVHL
Protocol: as §1, §2, §3, §4, §5

[6] = tested on: Capan-1 human pancreatic cancer tumors; test: In vivo efficacy as single agent, Capan-1 BRCA-2 mutated mouse model; details: 75 mg/kg oral daily; for Max TGI (%): single agent, Capan-1 xenograft; for Toxicity: body weight reduction, out of 7 mice treated
Description: Balb, athymic Nu/Nu male mice, from Harlan (Italy), were maintained in agreement with the European Communities Council Directive no. 86/609/EEC concerning the protection of animals used for experimental or other scientific purposes, in cages with paper filter cover, food and bedding sterilized and acidified water. Fragments of Capan-1 human pancreatic cancer tumors were implanted subcutaneously. […] Each group included seven animals. The treatment started one day after randomization. Compound of formula (I) was administered by oral route as a methocel suspension at the indicated doses and times. Tumor dimension was measured regularly by calipers during the experiments and tumor mass was calculated as described in Simeoni M. et al., Cancer Res 64, 1094-1101 (2004).

[7] = tested on: BRCA-mutated cancer; details: 19 patients with BRCA mutations and breast, ovarian and prostate cancer, phase I; cited from earlier work
[8] = probe P1; read-out: PARP-3 (DC50 μM)

F on AUC [1]: 30% | clearance [1]: 63.1 mL/min/kg | Vd [1]: 1.54 L/kg | AUC [1]: 2.51 µM·h | Cmax [1]: 3.06 µM | half-life [1]: 40.8 min
Compound: NC(=O)c1cccc2c1C(=O)N(CCN1CCc3ccccc3C1)C2 [(3), 2-[2-(3,4-dihydro-1H-isoquinolin-2-yl)-ethyl]-3-oxo-2,3-dihydro-1H-isoindole-4-carboxylic Acid Amide]

IC50 [2]: 1.4 µM
Compound: NC(=O)c1cccc2c1C(=O)N(C1CCN(Cc3cccs3)CC1)C2 [(9), 3-oxo-2-(1-thiophen-2-ylmethyl-piperidin-4-yl)-2,3-dihydro-1H-isoindole-4-carboxylic Acid Amide]

Compound: NC(=O)c1cccc2c1C(=O)N(C1CCN(C3CCCCC3)CC1)C2 [(11), 2-(1-cyclohexyl-piperidin-4-yl)-3-oxo-2,3-dihydro-1H-isoindole-4-carboxylic Acid Amide]
Kd [3]: < 0.01 µM | DC50 [3]: < 0.25 µM | DC50 [4]: 2.53 µM | Kd [4]: 1.4 µM | DC50 [5, 8]: 2.06 µM | F on AUC [1]: 100% | clearance [1]: 41.3 mL/min/kg | Vd [1]: 4.47 L/kg | AUC [1]: 20.4 µM·h | Cmax [1]: 3.87 µM | half-life [1]: 163 min | Max TGI (%) [6]: 42% | Toxicity [6]: 0/7 | IC50 [2]: 0.02 µM

IC50 [2]: 3.9 µM
Compound: NC(=O)c1cccc2c1C(=O)N(C1CCN(Cc3ccco3)CC1)C2 [(12), 2-(1-furan-2-ylmethyl-piperidin-4-yl)-3-oxo-2,3-dihydro-1H-isoindole-4-carboxylic Acid Amide]

F on AUC [1]: 57% | clearance [1]: 81.8 mL/min/kg | Vd [1]: 2.68 L/kg | AUC [1]: 3.22 µM·h | Cmax [1]: 2.29 µM | half-life [1]: 53.4 min | IC50 [2]: 0.011 µM
Compound: NC(=O)c1cccc2c1C(=O)N(C1CCN(Cc3ccoc3)CC1)C2 [(14), 2-(1-furan-3-ylmethyl-piperidin-4-yl)-3-oxo-2,3-dihydro-1H-isoindole-4-carboxylic Acid Amide]

Compound: NC(=O)c1cccc2c1C(=O)N(C1CCN(Cc3ccccn3)CC1)C2 [(15), 3-oxo-2-(1-pyridin-2-ylmethyl-piperidin-4-yl)-2,3-dihydro-1H-isoindole-4-carboxylic Acid Amide]
DC50 [5, 8]: 0.9 µM | F on AUC [1]: 68% | clearance [1]: 16.9 mL/min/kg | Vd [1]: 0.79 L/kg | AUC [1]: 19.2 µM·h | Cmax [1]: 8.73 µM | half-life [1]: 60.6 min | Max TGI (%) [6]: 54% | Toxicity [6]: 0/7

F on AUC [1]: 37% | clearance [1]: 79.3 mL/min/kg | Vd [1]: 2.51 L/kg | AUC [1]: 2.13 µM·h | Cmax [1]: 2.97 µM | half-life [1]: 37.8 min | IC50 [2]: 0.02 µM
Compound: NC(=O)c1cccc2c1C(=O)N(C1CCN(Cc3ccc[nH]3)CC1)C2 [(16), 3-oxo-2-[1-(1H-pyrrol-2-ylmethyl)-piperidin-4-yl]-2,3-dihydro-1H-isoindole-4-carboxylic Acid Amide]

Compound: NC(=O)c1cccc2c1C(=O)N(CCCc1ccccc1)C2 [(17), 3-oxo-2-(3-phenyl-propyl)-2,3-dihydro-1H-isoindole-4-carboxylic Acid Amide]
IC50 [2]: 1.51 µM

Compound: NC(=O)c1cccc2c1C(=O)N(CCCN1CCc3ccccc3C1)C2 [(19), 2-[3-(3,4-dihydro-1H-isoquinolin-2-yl)-propyl]-3-oxo-2,3-dihydro-1H-isoindole-4-carboxylic Acid Amide]
Kd [3]: < 0.03 µM | DC50 [3]: < 0.25 µM | IC50 [2]: 0.33 µM

Compound: NC(=O)c1cccc2c1C(=O)N(CCCN1CCCc3ccccc31)C2 [(20), 2-[3-(3,4-dihydro-2H-quinolin-1-yl)-propyl]-3-oxo-2,3-dihydro-1H-isoindole-4-carboxylic Acid Amide]
Kd [3]: < 0.03 µM | DC50 [3]: < 0.25 µM | DC50 [4]: 0.58 µM | Kd [4]: 0.19 µM | IC50 [2]: 0.83 µM

DC50 [3]: 0.28 µM | IC50 [2]: 0.6 µM
Compound: CN1CCN(CCCN2Cc3cccc(C(N)=O)c3C2=O)CC1 [(21), 2-[3-(4-methyl-piperazin-1-yl)-propyl]-3-oxo-2,3-dihydro-1H-isoindole-4-carboxylic Acid Amide]

Compound: NC(=O)c1cccc2c1C(=O)N(CCCN1CCN(c3ccccc3)CC1)C2 [(22), 3-oxo-2-[3-(4-phenyl-piperazin-1-yl)-propyl]-23-dihydro-1H-isoindole-4-carboxylic Acid Amide]
Kd [3]: < 0.03 µM | DC50 [3]: < 0.25 µM | DC50 [4]: 2.12 µM | IC50 [2]: 0.4 µM

Compound: NC(=O)c1cc(F)cc2c1C(=O)N(CCCN1CCOCC1)C2 [(23), 6-Fluoro-2-(3-morpholin-4-yl-propyl)-3-oxo-2,3-dihydro-1H-isoindole-4-carboxylic Acid Amide]
Kd [3]: < 0.03 µM | DC50 [3]: < 0.25 µM | DC50 [4]: 2 µM | IC50 [2]: 0.4 µM

IC50 [2]: 0.11 µM
Compound: NC(=O)c1cccc2c1C(=O)N(C1CCN(CC3CC3)CC1)C2 [(24), 2-(1-cyclopropylmethyl-piperidin-4-yl)-3-oxo-2,3-dihydro-1H-isoindole-4-carboxylic Acid Amide]

Compound: CC1CCCC(C)N1CCCN1Cc2cccc(C(N)=O)c2C1=O (stereo not shown) [(27), 2-[3-(2,6-dimethyl-piperidin-1-yl)-propyl]-3-oxo-2,3-dihydro-1H-isoindole-4-carboxylic Acid Amide Hydrochloride]
DC50 [4]: > 10 µM

DC50 [5, 8]: 5.48 µM
Compound: NC(=O)c1cccc2c1C(=O)N(C1CCN(C3CCOCC3)CC1)C2 [(28), 3-ox-2-[1-(tetrahydro-pyran-4-yl)-piperidin-4-yl]-2,3-dihydro-1H-isoindole-4-carboxylic Acid Amide]

Compound: NC(=O)c1cc(F)cc2c1C(=O)N(C1CCN(C3CCCCC3)CC1)C2 [(29), 2-(1-cyclohexyl-piperidin-4-yl)-6-fluoro-3-oxo-2,3-dihydro-1H-isoindole-4-carboxylic acid amide]
Kd [3]: < 0.01 µM | DC50 [3]: < 0.25 µM | DC50 [4]: 2.92 µM | DC50 ([5]; read-out: PARP-3 (DC50 μM); probe P1): 1 µM | IC50 [2]: 0.5 µM

DC50 [3]: < 0.25 µM | DC50 [5, 8]: 0.35 µM
Compound: NC(=O)c1cccc2c1C(=O)N(C1CCN(Cc3ccccc3)CC1)C2 [(30), 2-(1-benzyl-piperidin-4-yl)-3-oxo-2,3-dihydro-1H-isoindole-4-carboxylic Acid Amide]

Compound: NC(=O)c1cccc2c1C(=O)N(CCC1CCN(Cc3ccccc3)CC1)C2 [(31), 2-[2-(1-benzyl-piperidin-4-yl)-ethyl]-3-oxo-2,3-dihydro-1H-isoindole-4-carboxylic Acid Amide Hydrochloride]
DC50 [3]: < 0.25 µM | DC50 [4]: > 10 µM | IC50 [2]: 0.2 µM

Compound: NC(=O)c1cccc2c1C(=O)N(CCCN1CCC(Cc3ccccc3)CC1)C2 [(32), 2-[3-(4-benzyl-piperidin-1-yl)-propyl]-3-oxo-2,3-dihydro-1H-isoindole-4-carboxylic Acid Amide]
IC50 [2]: 0.17 µM

Compound: O=C(c1cc(Cc2n[nH]c(=O)c3ccccc23)ccc1F)N1CCN(C(=O)C2CC2)CC1 [Olaparib]
objective response rate [7]: 47%
